Activity calls are given as the source filed them.
How the values were obtained:
Troponin, cardiac muscle = Troponin, cardiac muscle (Homo sapiens, UniProt P19429+P45379+P63316); assay: Fluorescence-based biochemical high throughput dose response assay for activators of the calcium sensitivity of cardiac Regulated Thin Filaments (RTF). [Related pubchem assays (depositor defined):AID493008, AID493018, AID504382, AID504383]; assay type: protein-complex assay
[1] = fluconazole-exposed Candida albicans growth modulators – fluorescence, retest, confirmation (AID 2467); assay type: functional, cell-based
[2] = NIH-3T3 fibroblast cytotoxicity, dose response, cytotoxicity control, cell-based, fluorescence, Alamar Blue, secondary assay (AID 2327); assay type: functional;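 note: NIH-3T3 mouse fibroblasts cultured with fluconazole at 8 µg/mL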
[3] = Trypanosoma cruzi growth suppression in host cells – NIH3T3 host cells, beta-gal luminescence, confirmation (AID 2044); assay type: functional, cell-based;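 note: intracellular parasites grown in NIH/3T3 mouse fibroblasts as host cells; luminescent beta-galactosidase reporter signal from transgenic T. cruzi replicating inside host cells; inhibitors lower the luminescence signal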
[4] = target: T1, Type-1 angiotensin II receptor (Homo sapiens, UniProt P30556); assay: antagonism of angiotensin II type 1 receptor – cell-based, uHTS hits, selectivity assay for APJ receptor antagonist project, dose response (AID 463214); assay type: functional;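 note: antagonist potency against angiotensin II stimulated AT1 response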
T1 sequence (P30556 whole entry): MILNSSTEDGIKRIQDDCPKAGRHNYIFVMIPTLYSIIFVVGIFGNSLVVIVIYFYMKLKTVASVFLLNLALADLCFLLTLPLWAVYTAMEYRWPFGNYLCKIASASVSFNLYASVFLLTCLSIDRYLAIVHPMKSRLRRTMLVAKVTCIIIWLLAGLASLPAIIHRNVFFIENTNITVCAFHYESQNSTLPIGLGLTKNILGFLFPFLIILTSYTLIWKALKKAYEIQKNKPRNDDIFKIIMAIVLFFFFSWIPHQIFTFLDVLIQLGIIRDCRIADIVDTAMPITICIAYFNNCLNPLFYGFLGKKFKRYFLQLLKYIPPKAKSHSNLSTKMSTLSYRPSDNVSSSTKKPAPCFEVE

Beta-galactosidase = Beta-galactosidase (Escherichia coli, UniProt Q8VNN2); assay: PubChem AID 485352; assay type: functional
[5] = NIH3T3 cell viability loss – ATP luminescence, mouse fibroblasts, counter-screen, dose response (AID 2010); assay type: functional, cell-based;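 note: cells exposed to compound for about 90 hours before reading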
[6] = target: T2, E3 ubiquitin-protein ligase XIAP (Homo sapiens, UniProt P98170); assay: small molecules displacing peptide from XIAP – biochemical, IAP family, fluorescence polarization (AID 1018); assay type: functional
[7] = target: T2, E3 ubiquitin-protein ligase XIAP; assay: Counter Screen using XIAP-Bir3 for Chemical Antagonists of Bir1/2 domains of IAP-family anti-apoptotic proteins. [Related pubchem assays (depositor defined):AID1018, AID1449, AID1514, AID1638, AID1749, AID1750, AID488957, AID488963]
[8] = target: G-protein coupled receptor 55 (Homo sapiens, UniProt Q9Y2T6); assay: inhibition of LPI-stimulated GPR55 beta-arrestin translocation – imaging, U2OS, beta-arrestin-GFP, LPI agonist, primary screen (AID 2013); assay type: functional;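 note: antagonist potency measured as reduced agonist-driven arrestin aggregation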
[9] = target: T3, Nuclear receptor subfamily 0 group B member 1 (Homo sapiens, UniProt P51843); assay: Luminescence-based cell-based high throughput dose response assay for inhibitors of the orphan nuclear receptor subfamily 0, group B, member 1 (DAX1; NR0B1). [Related pubchem assays (depositor defined):AID504766, AID504790]; assay type: functional
T3 sequence (P51843 whole entry): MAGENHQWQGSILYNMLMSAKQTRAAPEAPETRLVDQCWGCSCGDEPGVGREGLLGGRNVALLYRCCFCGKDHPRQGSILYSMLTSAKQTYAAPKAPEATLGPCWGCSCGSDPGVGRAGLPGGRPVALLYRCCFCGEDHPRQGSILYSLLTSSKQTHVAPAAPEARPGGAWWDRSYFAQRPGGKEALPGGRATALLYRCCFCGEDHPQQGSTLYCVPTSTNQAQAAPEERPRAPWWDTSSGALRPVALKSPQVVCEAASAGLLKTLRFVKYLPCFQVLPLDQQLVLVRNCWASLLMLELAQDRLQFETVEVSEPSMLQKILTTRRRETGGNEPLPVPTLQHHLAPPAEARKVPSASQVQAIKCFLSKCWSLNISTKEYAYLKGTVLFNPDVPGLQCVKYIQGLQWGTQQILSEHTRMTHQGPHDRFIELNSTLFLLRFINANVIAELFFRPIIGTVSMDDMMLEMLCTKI

HEK293 = assay: cells; assay type: functional, cell-based; settings: Homo sapiens
[10] = target: T4, High affinity choline transporter 1 (Homo sapiens, UniProt Q9GZV3); assay: human choline transporter blockers, potency – cell-based, 5-point CRC, membrane potential dye, dose response (AID 504840); assay type: functional
T4 sequence (Q9GZV3 whole entry): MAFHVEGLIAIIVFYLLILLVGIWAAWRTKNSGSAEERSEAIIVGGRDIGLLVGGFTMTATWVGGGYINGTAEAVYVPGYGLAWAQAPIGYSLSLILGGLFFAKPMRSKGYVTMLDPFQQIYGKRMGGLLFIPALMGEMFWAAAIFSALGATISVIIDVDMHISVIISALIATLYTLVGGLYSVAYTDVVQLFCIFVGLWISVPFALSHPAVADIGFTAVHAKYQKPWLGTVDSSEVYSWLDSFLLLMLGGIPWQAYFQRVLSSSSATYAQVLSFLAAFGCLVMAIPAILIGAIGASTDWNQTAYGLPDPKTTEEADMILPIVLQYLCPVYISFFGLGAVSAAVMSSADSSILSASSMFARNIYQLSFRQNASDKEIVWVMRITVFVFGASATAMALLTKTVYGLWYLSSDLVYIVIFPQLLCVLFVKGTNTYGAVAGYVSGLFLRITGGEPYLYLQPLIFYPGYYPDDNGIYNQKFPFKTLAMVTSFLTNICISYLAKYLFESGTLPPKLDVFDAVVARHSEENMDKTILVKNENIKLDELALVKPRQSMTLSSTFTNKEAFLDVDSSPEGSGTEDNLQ

[11] = microbe, parasite or virus in culture; assay type: functional; settings: Mycobacterium tuberculosis
[12] = viability of PTEN-deleted HCT116 cells – cell-based, HCT116 PTEN knockout, dose response (AID 1047); assay type: functional;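 note: HCT116 colon tumor cells with PTEN knocked out; cells exposed to compound for 60 hours before readout; potency for loss of cell viability measured by luminescence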
[13] = alpha-synuclein stem-loop luciferase translation blockers – H4 neuroglioma cells, luminescence, confirmation (AID 1988); assay type: functional, cell-based
Melanocortin receptor 4 = Melanocortin receptor 4 (Homo sapiens, UniProt P32245); assay type: functional, cell-based;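 note: Cell-based assay with luminescence read-out, confirmatory dose-response testing for agonist activity of biased ligands at MC4R; human U2OS cells with tagged receptor and beta-arrestin; potency of agonists that increase receptor coupling to beta-arrestin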
[14] = viability of HCT116 lacking mutant beta-catenin – cell-based, human colon tumor, dose response (AID 1045); assay type: functional;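 note: HCT116 colon tumor cells with beta catenin knocked out; cells exposed to compound for 60 hours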
[15] = target: T5, Ubiquitin-conjugating enzyme E2 N (Homo sapiens, UniProt P61088); assay type: functional;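 note: Dose-response confirmation in a TR-FRET assay detecting UBC13-driven polyubiquitin chain formation, inhibition measured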
T5 sequence (P61088 whole entry): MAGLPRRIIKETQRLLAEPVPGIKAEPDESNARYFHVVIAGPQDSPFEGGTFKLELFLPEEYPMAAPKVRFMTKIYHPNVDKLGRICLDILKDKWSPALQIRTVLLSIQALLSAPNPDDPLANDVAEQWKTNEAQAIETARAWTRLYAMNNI

[16] = Luminescence Cell-Based Dose Response HTS to Identify Inhibitors of 5'UTR Stem-Loop Driven Prion Protein mRNA Translation in H4 Neuroglioblastoma Cells. [Related pubchem assays: 1827 (Project Summary), 1813 (Primary HTS)]; assay type: functional
[17] = target: Glucose-6-phosphate 1-dehydrogenase (Homo sapiens, UniProt P11413); assay: inhibition of Homo sapiens G6PD, dose series – biochemical, fluorescence, selectivity assay for P. falciparum G6PD inhibitor project, dose response (AID 504792); assay type: functional
Hexokinase = target: T6, Hexokinase (Trypanosoma brucei, UniProt Q38C41); assay: Confirmation assay for inhibitors of Trypanosoma brucei hexokinase 1-Analogue-first series. [Related pubchem assays (depositor defined):AID1430, AID1632, AID2516, AID2560, AID2579, AID2600, AID449725, AID492951]; assay type: functional
T6 sequence (Q38C41 whole entry): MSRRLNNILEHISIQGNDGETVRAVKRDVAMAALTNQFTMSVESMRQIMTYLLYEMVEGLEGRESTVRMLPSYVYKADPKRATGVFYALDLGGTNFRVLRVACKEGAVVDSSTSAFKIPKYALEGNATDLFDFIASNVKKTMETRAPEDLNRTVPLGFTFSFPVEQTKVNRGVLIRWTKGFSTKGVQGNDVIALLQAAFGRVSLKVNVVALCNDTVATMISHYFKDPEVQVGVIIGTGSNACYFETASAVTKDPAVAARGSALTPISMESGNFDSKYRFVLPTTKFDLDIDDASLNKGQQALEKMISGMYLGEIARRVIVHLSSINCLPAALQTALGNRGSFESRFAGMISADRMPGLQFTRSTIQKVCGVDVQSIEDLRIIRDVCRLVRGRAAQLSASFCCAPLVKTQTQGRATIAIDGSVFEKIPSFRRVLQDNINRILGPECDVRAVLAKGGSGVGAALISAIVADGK

[18] = viability loss in HeLa cells – cytotoxicity control for MgcRacGAP inhibitor project, dose response (AID 624300); assay type: functional
[19] = target: T7, Rac GTPase-activating protein 1 (Homo sapiens, UniProt Q9H0H5); assay: blockers of MgcRacGAP-driven Rac1 GTP hydrolysis – biochemical, ADP Hunter fluorescence, primary and confirmatory, confirmation (AID 624330); assay type: functional
T7 sequence (Q9H0H5 whole entry): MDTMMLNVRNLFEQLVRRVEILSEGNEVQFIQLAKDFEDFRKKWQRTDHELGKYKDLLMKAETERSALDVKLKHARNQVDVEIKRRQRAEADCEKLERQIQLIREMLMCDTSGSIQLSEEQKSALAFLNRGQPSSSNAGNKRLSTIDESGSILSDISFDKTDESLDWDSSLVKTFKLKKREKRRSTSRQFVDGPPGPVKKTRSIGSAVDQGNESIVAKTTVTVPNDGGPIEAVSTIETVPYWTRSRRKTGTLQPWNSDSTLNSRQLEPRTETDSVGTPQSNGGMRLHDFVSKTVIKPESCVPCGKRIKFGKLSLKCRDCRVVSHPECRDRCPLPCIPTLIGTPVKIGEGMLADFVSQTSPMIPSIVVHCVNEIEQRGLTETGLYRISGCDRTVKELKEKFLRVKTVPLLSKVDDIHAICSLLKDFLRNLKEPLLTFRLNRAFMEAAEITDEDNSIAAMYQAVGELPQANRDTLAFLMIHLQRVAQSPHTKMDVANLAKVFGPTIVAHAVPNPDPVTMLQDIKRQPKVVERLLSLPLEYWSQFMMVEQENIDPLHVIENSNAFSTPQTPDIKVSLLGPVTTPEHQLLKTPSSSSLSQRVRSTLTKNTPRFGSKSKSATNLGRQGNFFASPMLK

Chain of Beta-galactosidase (Q8VNN2 whole entry): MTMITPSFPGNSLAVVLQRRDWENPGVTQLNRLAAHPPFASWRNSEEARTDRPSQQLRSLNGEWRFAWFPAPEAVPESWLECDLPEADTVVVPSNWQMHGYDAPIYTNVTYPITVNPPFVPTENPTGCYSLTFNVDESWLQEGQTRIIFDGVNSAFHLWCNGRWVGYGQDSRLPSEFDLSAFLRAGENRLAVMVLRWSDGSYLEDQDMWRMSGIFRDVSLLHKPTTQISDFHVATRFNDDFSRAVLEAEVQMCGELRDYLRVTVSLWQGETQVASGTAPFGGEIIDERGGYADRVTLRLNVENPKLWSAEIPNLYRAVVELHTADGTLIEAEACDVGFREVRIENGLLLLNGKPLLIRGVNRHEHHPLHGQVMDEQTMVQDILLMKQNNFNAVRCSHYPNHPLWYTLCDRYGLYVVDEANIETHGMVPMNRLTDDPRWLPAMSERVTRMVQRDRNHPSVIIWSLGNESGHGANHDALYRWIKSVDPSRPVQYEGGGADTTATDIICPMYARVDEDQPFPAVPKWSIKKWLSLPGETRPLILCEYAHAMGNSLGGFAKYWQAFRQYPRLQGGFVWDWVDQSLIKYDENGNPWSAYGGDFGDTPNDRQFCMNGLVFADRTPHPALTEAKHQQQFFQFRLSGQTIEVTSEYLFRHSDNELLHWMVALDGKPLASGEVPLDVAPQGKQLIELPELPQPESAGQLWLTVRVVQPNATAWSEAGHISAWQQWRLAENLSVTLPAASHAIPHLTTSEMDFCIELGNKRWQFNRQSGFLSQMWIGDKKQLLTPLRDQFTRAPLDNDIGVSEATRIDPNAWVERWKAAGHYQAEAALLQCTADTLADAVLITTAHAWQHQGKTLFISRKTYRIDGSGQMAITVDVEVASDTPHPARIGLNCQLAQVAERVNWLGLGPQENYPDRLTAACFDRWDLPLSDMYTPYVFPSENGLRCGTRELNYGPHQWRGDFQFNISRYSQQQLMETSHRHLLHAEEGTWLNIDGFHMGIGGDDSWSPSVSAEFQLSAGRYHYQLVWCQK
T2 sequence (P98170 whole entry): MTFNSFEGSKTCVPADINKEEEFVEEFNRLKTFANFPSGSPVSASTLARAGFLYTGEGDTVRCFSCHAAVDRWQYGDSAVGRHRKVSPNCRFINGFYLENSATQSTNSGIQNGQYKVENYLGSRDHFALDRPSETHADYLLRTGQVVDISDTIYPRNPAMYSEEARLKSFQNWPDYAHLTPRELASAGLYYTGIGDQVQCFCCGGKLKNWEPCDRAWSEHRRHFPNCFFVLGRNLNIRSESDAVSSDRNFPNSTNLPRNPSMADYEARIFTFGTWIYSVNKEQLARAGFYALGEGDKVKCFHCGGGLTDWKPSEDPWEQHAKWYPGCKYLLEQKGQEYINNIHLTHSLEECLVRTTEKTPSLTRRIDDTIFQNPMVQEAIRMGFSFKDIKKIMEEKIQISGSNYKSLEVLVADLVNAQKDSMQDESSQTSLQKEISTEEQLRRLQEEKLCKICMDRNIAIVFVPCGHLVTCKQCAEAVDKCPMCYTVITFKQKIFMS
Chain of G-protein coupled receptor 55 (Q9Y2T6 whole entry): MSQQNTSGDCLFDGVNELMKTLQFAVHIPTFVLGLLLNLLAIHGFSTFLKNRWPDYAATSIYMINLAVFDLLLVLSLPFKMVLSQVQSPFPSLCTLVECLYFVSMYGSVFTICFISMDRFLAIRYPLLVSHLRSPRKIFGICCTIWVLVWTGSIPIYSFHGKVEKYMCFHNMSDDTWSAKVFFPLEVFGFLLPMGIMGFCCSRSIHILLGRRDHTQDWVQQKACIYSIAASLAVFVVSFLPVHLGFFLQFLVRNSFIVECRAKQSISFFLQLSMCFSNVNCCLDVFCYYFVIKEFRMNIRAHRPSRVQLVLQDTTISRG
Chain of Melanocortin receptor 4 (P32245 whole entry): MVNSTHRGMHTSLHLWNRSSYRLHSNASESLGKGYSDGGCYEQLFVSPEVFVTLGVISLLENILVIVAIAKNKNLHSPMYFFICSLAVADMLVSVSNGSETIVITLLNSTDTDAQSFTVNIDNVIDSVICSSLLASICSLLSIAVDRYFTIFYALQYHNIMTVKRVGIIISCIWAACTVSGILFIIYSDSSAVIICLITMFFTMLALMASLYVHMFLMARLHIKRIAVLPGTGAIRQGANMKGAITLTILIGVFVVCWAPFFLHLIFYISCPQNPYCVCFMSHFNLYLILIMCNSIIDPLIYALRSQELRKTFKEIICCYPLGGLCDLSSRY
Chain of Glucose-6-phosphate 1-dehydrogenase (P11413 whole entry): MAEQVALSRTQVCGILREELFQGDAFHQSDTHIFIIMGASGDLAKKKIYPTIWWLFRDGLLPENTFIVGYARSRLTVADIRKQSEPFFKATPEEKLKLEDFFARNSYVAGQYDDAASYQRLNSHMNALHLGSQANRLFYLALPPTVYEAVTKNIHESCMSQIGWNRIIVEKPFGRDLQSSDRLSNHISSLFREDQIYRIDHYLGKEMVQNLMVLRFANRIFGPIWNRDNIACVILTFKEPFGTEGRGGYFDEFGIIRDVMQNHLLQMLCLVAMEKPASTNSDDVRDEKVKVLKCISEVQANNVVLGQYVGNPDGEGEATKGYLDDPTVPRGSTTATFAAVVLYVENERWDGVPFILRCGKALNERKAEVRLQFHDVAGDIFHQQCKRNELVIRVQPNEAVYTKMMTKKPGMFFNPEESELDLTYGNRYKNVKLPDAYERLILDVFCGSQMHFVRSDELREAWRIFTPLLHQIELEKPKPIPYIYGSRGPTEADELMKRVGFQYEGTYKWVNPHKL

Cc1cc(N2CCCC2)ccc1C=C(C#N)C#N
EC50 (Troponin, cardiac muscle): 4.16 µM (active)

CCCCCC1CCC(c2nnc(S)n2C)CC1 (stereo not drawn)
EC50 [1]: > 38 µM (not active)
EC50 [2]: > 150 µM (inactive)
EC50 [3]: 1.92 µM (active)
IC50 [4]: > 40 µM (not active)
EC50 (Beta-galactosidase): > 40 µM (inactive)
EC50 [5]: > 60 µM (not active)

COc1nc(NS(=O)(=O)c2ccc(C)cc2)nc(C)c1Cl
IC50 [6]: > 100 µM (not active)
IC50 [7]: > 100 µM (inactive)

O=C(Nc1ccccc1N1CCOCC1)c1cc(-c2ccncc2)nc2ccccc12
IC50 [8]: 4.89 µM (active)

O=C(O)CCN(Cc1ccccc1)S(=O)(=O)c1ccccc1Cl
IC50 [6]: > 100 µM (not active)
IC50 [7]: > 100 µM (inactive)

NNC(=O)COc1ccc(-c2[nH]nc(C(F)(F)F)c2-c2ccc(Br)cc2)c(O)c1
IC50 [8]: 1.7 µM (active)

Cc1cccc(OCc2nc(C#N)c(NCCN(C)C)o2)c1
IC50 [6]: > 100 µM (not active)
IC50 [7]: > 100 µM (inactive)

O=C(c1ccccc1)c1cnc(-c2ccccc2)s1
IC50 [9]: > 67.6 µM (inactive)
IC50 (HEK293): > 67.6 µM (inactive)

CCc1nnc(NS(=O)(=O)c2ccc(NC(=O)/C=C/c3ccccc3Cl)cc2)s1
IC50 [8]: 1.99 µM (active)
IC50 [10]: 13.8 µM (active)

COc1ccccc1NC(=O)CCC(=O)OCC(=O)c1ccc(C)c([N+](=O)[O-])c1
IC50 [4]: 33.7 µM (not active)
EC50 (Beta-galactosidase): > 40 µM (inactive)

Brc1ccc(-c2csc(N3CCOCC3)n2)cc1
IC50 [9]: > 67.5 µM (inactive)
IC50 (HEK293): > 67.5 µM (inactive)

O=C1c2ccsc2SCCN1Cc1ccc(F)cc1
EC50 (Troponin, cardiac muscle): > 71.5 µM (inactive)

O=C(Cc1ccccc1)NCC(=O)OCC(=O)c1ccc(Cl)c([N+](=O)[O-])c1
IC50 [4]: 9.37 µM (active)
EC50 (Beta-galactosidase): > 40 µM (inactive)

CN(C)CCCNC(=O)c1ccc(-c2nc(-c3ccc(Cl)cc3)cs2)cc1
EC50 [1]: 3.33 µM (active)
EC50 [2]: 44.4 µM (inconclusive)
CC50 [11]: 4.08 µM (active)
EC50 [12]: 2.41 µM (active)
EC50 [13]: 9.67 µM (inconclusive)
EC50 (Melanocortin receptor 4): > 9.91 µM (active)
EC50 [3]: 0.738 µM (active)
EC50 [14]: 2.25 µM (active)
IC50 [15]: > 20 µM (inactive)
IC50 [4]: 22.6 µM (not active)
EC50 [16]: > 120 µM (not active)
EC50 (Beta-galactosidase): > 40 µM (inactive)
EC50 [5]: 10.2 µM (active)

NC(=O)CSc1nnc(-c2ccc(O)cc2)n1Cc1ccco1
IC50 [9]: > 67.6 µM (inactive)
IC50 (HEK293): > 67.6 µM (inactive)

O=C(O)CCN1CCc2ccccc21
IC50 [6]: > 100 µM (not active)
IC50 [7]: > 100 µM (inactive)

Cc1cc(C)c2nc(NC(=O)C3CCCO3)sc2c1 (stereo not drawn)
EC50 (Troponin, cardiac muscle): > 71.5 µM (inactive)

Cc1ccc(-n2sc3cc(F)ccc3c2=O)c(C)c1
IC50 [17]: 9.17 µM (active)
IC50 (Hexokinase): 4.77 µM (active)
CC50 [18]: 72.5 µM (active)
IC50 [19]: 35.8 µM (active)
